Literature values in PMC7395068, “The evolution of strategies to minimise the risk of human drug-induced liver injury (DILI) in drug discovery and development” (Archives of Toxicology, 2020).
Read-outs that look alike come from different tables or passages of the source.

What was measured:
[1] = cited from earlier work
[2] = ref Chen 2016; cited from earlier work
[3] = system: THLE or HepG2 cells, isolated mitochondria, BSEP; conditions: cited from earlier work

Structure (SMILES) | In vivo DILI ([1]; ref Aleo 2019) | DILI +VE (5-8), DILI -VE (-4) [2] | DILI severity category [2] | Partition Hybrid HRM Score ([3]; In vitro Assay, ref Aleo 2019) | Ro2 Hybrid HRM Score ([3]; In vitro Assay, ref Aleo 2019) | In vivo DILI ([1]; […]) | Partition Hybrid HRM Score [3] | Ro2 Hybrid HRM Score [3]
CCOc1nc2cccc(C(=O)O)c2n1Cc1ccc(-c2ccccc2-c2nnn[nH]2)cc1 [candesartan] | +VE | +VE | vLess-DILI-Concern | -VE | -VE | – | – | –
CN1CCC[C@@H]1CCO[C@](C)(c1ccccc1)c1ccc(Cl)cc1 [clemastine] | -VE | -VE | vNo-DILI-Concern | -VE | -VE | -VE | – | –
CN1C[C@H](C(=O)N[C@]2(C)O[C@@]3(O)[C@@H]4CCCN4C(=O)[C@H](Cc4ccccc4)N3C2=O)C[C@@H]2c3cccc4[nH]cc(c34)C[C@H]21 [dihydroergotamine] | -VE | -VE | vNo-DILI-Concern | – | – | – | -VE | -VE
NC(N)=Nc1nc(CSCCN/C=N/S(=O)(=O)c2ccc(Br)cc2)cs1 [ebrotidine] | +VE | +VE | vMost-DILI-Concern | +VE | +VE | – | – | –
COC(=O)CCc1ccc(OCC(O)CNC(C)C)cc1 (stereo not drawn) [esmolol] | -VE | -VE | vNo-DILI-Concern | +VE | -VE | – | – | –
Cc1nc(-c2ccc(OCC(C)C)c(C#N)c2)sc1C(=O)O [febuxostat] | +VE | +VE | vMost-DILI-Concern | +VE | +VE | – | – | –
O=C(COc1ccc(Cl)cc1)N1CCN(Cc2ccc3c(c2)OCO3)CC1 [fipexide] | +VE | +VE | vMost-DILI-Concern | +VE | +VE | – | – | –
Cc1nc2n(c(=O)c1CCN1CCC(c3noc4cc(F)ccc34)CC1)CCCC2O (stereo not drawn) [paliperidone] | -VE | -VE | vNo-DILI-Concern | -VE | -VE | – | – | –
Cn1c(=O)c2[nH]c(Br)nc2n(C)c1=O [pamabrom] | -VE | -VE | vNo-DILI-Concern | -VE | -VE | – | – | –
CC(C(=O)O)c1ccc(N2CC=CC2)c(Cl)c1 (stereo not drawn) [pirprofen] | +VE | +VE | vMost-DILI-Concern | +VE | -VE | +VE | – | –
OC(CCN1CCCCC1)(c1ccccc1)C1CCCCC1 (stereo not drawn) [trihexyphenidyl] | -VE | -VE | vNo-DILI-Concern | -VE | -VE | – | – | –
